Source: US12583895B2, “Polypeptides for restoring endothelial function and methods of use thereof” (Vanderbilt University, priority 2019, dated 2026)
Entries after “also recorded” stand apart in the source; their conditions may differ. Non-standard residues stand in square brackets, D forms with d. No end group written: not given here. pS = N[C@@H](COP(=O)(O)O)C(=O)O

Tests used:
rat aorta [1] = assay: Endothelial-dependent relaxation of rat aorta after cytokine (IL1β / cytomix) injury; type: cell-based; conditions: 2 hrs; for endothelial function (percent relaxation to carbachol) after IL1β injury: IL1β 50 ng/ml, peptide 100 μM; for endothelial function (percent relaxation to carbachol) after cytokine injury: IL1β alone 50 ng/ml or cytomix (IL1β, TNFa, IFNg), peptide 500 μM
Procedure: Freshly isolated rat aorta (RA) was cut into rings and suspended in the muscle bath. Tissues were then treated with either IL1β alone (50 ng/ml) or cytomix (IL1β 50 ng/ml, TNFa, 10 ng/ml, IFNg 50 ng/ml) in the absence or presence of NiPp (500 μM) for 2 hrs, contracted with PE, and then treated with escalating doses of carbachol (CCH; 10^−8 to 10^−5M). The percent relaxation was determined as a change to the maximal PE-induced contraction. n=5-7 rats. *p<0.05 in two-way ANOVA with Tukey post-test. NiPp restores cytokines-induced endothelial dysfunction in RA.
Freshly isolated rat aorta (RA) was cut into rings and suspended in the muscle bath. Tissues were then treated with the cytokine IL1β (50 ng/ml) in the absence or presence of NiPp, NiPp3, or scr3NiPp (100 μM) for 2 hrs, contracted with PE, and then treated with escalating doses of carbachol (CCH; 10^−8 to 10^−5 M). The percent relaxation was determined as a change to the maximal PE-induced contraction. n=5-7 rats. *p<0.05 in two-way ANOVA with Tukey post-tests. There were significant differences between IL1β-treated vs ctrl or NiPp-treated RA.
Freshly isolated rat aorta (RA) was cut into rings and suspended in the muscle bath. Tissues were then treated with either IL1β alone (50 ng/ml) or cytomix (IL1β 50 ng/ml, TNFa, 10 ng/ml, IFNg 50 ng/ml) in the absence or presence of NiPp (500 μM) for 2 hrs, contracted with PE, and then treated with escalating doses of carbachol (CCH; 10−8 to 10−5 M).
Freshly isolated rat aorta (RA) was cut into rings and suspended in the muscle bath. Tissues were then treated with the cytokine IL1β (50 ng/ml) in the absence or presence of NiPp, NiPp3, or scr3NiPp (100 μM) for 2 hrs, contracted with PE, and then treated with escalating doses of carbachol (CCH; 10^−8 to 10^−5 M). NiPp3 (SEQ ID NO:77) is a control polypeptide containing non-phosphorylated sequence of X2 of NiPp. scr3NiPp3 (SEQ ID NO:79) is a control polypeptide containing scrambled sequence of X2 of NiPp.

rat aorta [2] = assay: Endothelial-dependent relaxation of rat aorta after subfailure stretch injury, muscle bath; type: cell-based; conditions: stretch about 2 times resting length, peptide 500 μM, 1 hour, room temperature
Procedure: Freshly isolated rat aorta (RA) was subjected to subfailure stretch and incubated in PL in the absence (S) or presence of NiPp (500 μM) for 1 h at room temperature. […] The percent relaxation was determined as a change to the maximal PE-induced contraction. n=5 rats; #p<0.05, two-way ANOVA. […] Quantification of relative phosphorylation to total p38MAPK level is shown. N=10. *p<0.05, in one-way ANOVA with Tukey post-test. NiPp restores endothelial dysfunction and reduced p38 MAPK phosphorylation induced by stretch injury in RA.
Freshly isolated rat aorta was subjected to subfailure stretch (to haptic endpoint, approximately 2 times the resting length) and treated with NiPp, NiPp3, or scr3NiPp (500 μM) for 1 hour at room temperature. To determine the effect of injury on endothelial function, phenylephrine-precontracted tissues were treated with carbachol (CCH; 10^−8 to 10^−5M) and the percent relaxation was determined as a change to the maximal PE-induced contraction. Data are reported as mean responses±standard deviation. n=8. *p<0.05, two-way ANOVA with Tukey post-tests. There were significant differences between Stretch (S) vs. ctrl or NiPp-treated RA.
Measurement of endothelial-dependent relaxation. Rings of HSV or RA (1-2 mm) were suspended in a muscle bath containing a bicarbonate buffer (120 mM sodium chloride, 4.7 mM potassium chloride, 1.0 mM magnesium sulfate, 1.0 mM monosodium phosphate, 10 mM glucose, 1.5 mM calcium chloride, and 25 mM sodium bicarbonate, pH 7.4) equilibrated with 95% O2/5% CO2 at 37° C. for 1 h at a resting tension of 1 g, manually stretched to three times the resting tension, and maintained at resting tension for an additional 1 h.
This produced the maximal force tension relationship as previously described. […] Contractile responses were defined by stress, calculated using force generated by tissues as follows: stress (×10^5 N/m^2)=force (g)×0.0987/area, where area=wet weight (mg)/at maximal length (mm)]/1.055.
Relaxation was calculated as percent change in stress compared to the maximal PE-induced contraction (set as 100%). […]

| Substance | endothelial function (percent relaxation to carbachol) after IL1β injury (rat aorta [1]) | endothelial function (percent relaxation to carbachol) after cytokine injury (rat aorta [1]) | endothelial function (percent relaxation to carbachol) after subfailure stretch injury (rat aorta [2]) | endothelial function (percent relaxation to carbachol) after IL1β injury (rat aorta [1]; listed as scr3NiPp3) |
| --- | --- | --- | --- | --- |
| YARAAARQARASPAARRA(pS)AILPG (YARAAARQARASPAARRA[pS]AILPG) [NiPp, Cell-permeant phosphopeptide mimetic of Niban: transduction domain … conjugated to the region surrounding serine 602 of Niban] | restores | improved; also recorded: restores | restores |  |
| YARAAARQARASPAARRASAILPG (not fully specified (residue 19)) [NiPp3] |  | significant improvement | did not restore |  |
| YARAAARQARAAGSPPLA(pS)AIARR (YARAAARQARAAGSPPLA[pS]AIARR) [scr3NiPp] | did not restore |  | did not restore | failed to restore |
